Assay results from ChEMBL document CHEMBL3525934 (Drug Metab Dispos, 2013).

How the values were obtained:
Type in all cases: ADME
Details in all cases: 0.5 h
[1] = target: T1, Cytochrome P450 2C19 (Homo sapiens, UniProt P33261); assay: Drug metabolism in supersomes expressing human recombinant CYP2C19 assessed as enzyme-mediated clozapine-N-oxide metabolite formation at 100 uM after 30 mins measured per nmol of P450 by HPLC analysis
[2] = target: T2, Cytochrome P450 1A1 (Homo sapiens, UniProt P04798); assay: Drug metabolism in supersomes expressing human recombinant CYP1A1 assessed as enzyme-mediated total GSH conjugate formation at 100 uM after 30 mins measured per nmol of P450 by HPLC analysis in presence of GSH and hGST P1-1
T2 sequence (P04798 whole entry): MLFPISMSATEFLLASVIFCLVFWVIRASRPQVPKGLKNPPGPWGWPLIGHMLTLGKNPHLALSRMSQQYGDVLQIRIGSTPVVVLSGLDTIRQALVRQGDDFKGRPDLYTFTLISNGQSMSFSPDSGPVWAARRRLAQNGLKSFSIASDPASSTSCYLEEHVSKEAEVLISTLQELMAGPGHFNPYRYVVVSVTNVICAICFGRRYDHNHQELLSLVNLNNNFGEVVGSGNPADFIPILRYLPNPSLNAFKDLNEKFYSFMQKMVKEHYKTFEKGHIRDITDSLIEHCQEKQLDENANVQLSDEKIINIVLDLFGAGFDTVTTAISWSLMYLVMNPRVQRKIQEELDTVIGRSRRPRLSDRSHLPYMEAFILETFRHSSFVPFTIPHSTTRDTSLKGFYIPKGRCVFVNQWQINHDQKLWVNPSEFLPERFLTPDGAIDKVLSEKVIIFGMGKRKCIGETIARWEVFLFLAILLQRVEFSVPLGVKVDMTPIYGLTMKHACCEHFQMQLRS

[3] = target: T2, Cytochrome P450 1A1; assay: Drug metabolism in supersomes expressing human recombinant CYP1A1 assessed as enzyme-mediated total GSH conjugate formation at 10 uM after 30 mins measured per nmol of P450 by HPLC analysis in presence of GSH and hGST P1-1
[4] = target: T1, Cytochrome P450 2C19; assay: Drug metabolism in supersomes expressing human recombinant CYP2C19 assessed as enzyme-mediated N-desmethylclozapine metabolite formation at 100 uM after 30 mins measured per nmol of P450 by HPLC analysis
[5] = target: T3, Cytochrome P450 1B1 (Homo sapiens, UniProt Q16678); assay: Drug metabolism in supersomes expressing human recombinant CYP1B1 assessed as enzyme-mediated clozapine-N-oxide metabolite formation at 100 uM after 30 mins measured per nmol of P450 by HPLC analysis
T3 sequence (Q16678 whole entry): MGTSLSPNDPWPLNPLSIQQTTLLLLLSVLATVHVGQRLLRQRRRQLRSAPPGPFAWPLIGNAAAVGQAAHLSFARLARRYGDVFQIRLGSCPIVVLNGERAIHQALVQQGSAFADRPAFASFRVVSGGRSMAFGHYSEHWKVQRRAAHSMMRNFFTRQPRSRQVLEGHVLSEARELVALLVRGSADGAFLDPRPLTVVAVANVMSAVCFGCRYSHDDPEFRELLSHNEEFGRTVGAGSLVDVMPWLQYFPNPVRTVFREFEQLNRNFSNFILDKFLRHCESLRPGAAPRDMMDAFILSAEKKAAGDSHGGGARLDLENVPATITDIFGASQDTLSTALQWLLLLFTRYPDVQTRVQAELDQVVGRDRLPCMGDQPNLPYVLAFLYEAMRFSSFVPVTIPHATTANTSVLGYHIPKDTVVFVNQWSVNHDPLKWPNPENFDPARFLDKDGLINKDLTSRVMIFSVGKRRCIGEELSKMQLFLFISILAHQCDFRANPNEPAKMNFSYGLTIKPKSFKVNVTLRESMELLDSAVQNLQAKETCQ

[6] = target: T4, Cytochrome P450 2C8 (Homo sapiens, UniProt P10632); assay: Drug metabolism in supersomes expressing human recombinant CYP2C8 assessed as enzyme-mediated clozapine-N-oxide metabolite formation at 100 uM after 30 mins measured per nmol of P450 by HPLC analysis
T4 sequence (P10632 whole entry): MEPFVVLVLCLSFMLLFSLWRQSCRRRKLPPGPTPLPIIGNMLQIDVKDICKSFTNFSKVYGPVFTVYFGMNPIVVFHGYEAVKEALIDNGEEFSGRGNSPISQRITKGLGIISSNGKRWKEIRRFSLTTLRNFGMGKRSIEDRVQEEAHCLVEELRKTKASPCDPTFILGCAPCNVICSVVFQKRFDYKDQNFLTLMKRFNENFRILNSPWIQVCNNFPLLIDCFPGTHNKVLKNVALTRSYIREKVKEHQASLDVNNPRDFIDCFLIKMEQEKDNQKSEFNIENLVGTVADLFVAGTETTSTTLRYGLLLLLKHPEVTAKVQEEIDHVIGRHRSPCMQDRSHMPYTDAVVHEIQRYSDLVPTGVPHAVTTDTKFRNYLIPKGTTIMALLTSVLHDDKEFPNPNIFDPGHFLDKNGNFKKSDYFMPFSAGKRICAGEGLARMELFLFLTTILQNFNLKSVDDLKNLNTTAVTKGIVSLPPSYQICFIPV

[7] = target: T5, Cytochrome P450 2C9 (Homo sapiens, UniProt P11712); assay: Drug metabolism in supersomes expressing human recombinant CYP2C9 assessed as enzyme-mediated clozapine-N-oxide metabolite formation at 100 uM after 30 mins measured per nmol of P450 by HPLC analysis
T5 sequence (P11712 whole entry): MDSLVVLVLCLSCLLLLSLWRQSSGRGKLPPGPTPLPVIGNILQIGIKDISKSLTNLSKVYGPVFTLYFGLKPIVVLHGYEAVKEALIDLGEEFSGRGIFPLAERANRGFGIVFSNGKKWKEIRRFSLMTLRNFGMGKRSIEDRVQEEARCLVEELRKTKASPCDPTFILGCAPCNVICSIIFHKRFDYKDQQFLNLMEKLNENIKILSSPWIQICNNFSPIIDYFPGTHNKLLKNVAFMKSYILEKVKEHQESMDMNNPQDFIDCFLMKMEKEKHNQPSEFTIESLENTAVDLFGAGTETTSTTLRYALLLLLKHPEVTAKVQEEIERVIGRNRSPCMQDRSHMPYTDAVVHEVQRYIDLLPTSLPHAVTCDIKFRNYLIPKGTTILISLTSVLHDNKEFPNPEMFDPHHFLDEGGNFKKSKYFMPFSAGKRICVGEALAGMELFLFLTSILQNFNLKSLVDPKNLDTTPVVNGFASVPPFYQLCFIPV

[8] = target: T5, Cytochrome P450 2C9; assay: Drug metabolism in supersomes expressing human recombinant CYP2C9 assessed as enzyme-mediated clozapine-N-oxide metabolite formation at 10 uM after 30 mins measured per nmol of P450 by HPLC analysis
[9] = target: T6, Cytochrome P450 2D6 (Homo sapiens, UniProt P10635); assay: Drug metabolism in supersomes expressing human recombinant CYP2D6 assessed as enzyme-mediated cyanide adduct formation at 100 uM after 30 mins measured per nmol of P450 by HPLC analysis in presence of KCN
T6 sequence (P10635 whole entry): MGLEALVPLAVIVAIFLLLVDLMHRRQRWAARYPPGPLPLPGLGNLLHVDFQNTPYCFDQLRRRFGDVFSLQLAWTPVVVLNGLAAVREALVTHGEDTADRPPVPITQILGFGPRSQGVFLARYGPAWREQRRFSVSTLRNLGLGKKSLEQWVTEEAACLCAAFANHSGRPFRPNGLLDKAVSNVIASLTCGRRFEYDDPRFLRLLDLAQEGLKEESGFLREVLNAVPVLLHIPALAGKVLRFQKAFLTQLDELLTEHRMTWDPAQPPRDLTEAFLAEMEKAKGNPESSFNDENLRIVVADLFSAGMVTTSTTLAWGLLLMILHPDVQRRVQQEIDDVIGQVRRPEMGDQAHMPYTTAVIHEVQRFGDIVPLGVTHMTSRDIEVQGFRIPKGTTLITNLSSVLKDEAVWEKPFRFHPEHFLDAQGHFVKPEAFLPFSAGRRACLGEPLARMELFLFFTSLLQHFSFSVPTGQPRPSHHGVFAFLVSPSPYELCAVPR

[10] = target: T2, Cytochrome P450 1A1; assay: Drug metabolism in supersomes expressing human recombinant CYP1A1 assessed as enzyme-mediated clozapine-N-oxide metabolite formation at 10 uM after 30 mins measured per nmol of P450 by HPLC analysis
[11] = target: T2, Cytochrome P450 1A1; assay: Drug metabolism in supersomes expressing human recombinant CYP1A1 assessed as enzyme-mediated clozapine-N-oxide metabolite formation at 100 uM after 30 mins measured per nmol of P450 by HPLC analysis
[12] = target: T6, Cytochrome P450 2D6; assay: Drug metabolism in supersomes expressing human recombinant CYP2D6 assessed as enzyme-mediated clozapine-N-oxide metabolite formation at 10 uM after 30 mins measured per nmol of P450 by HPLC analysis
[13] = target: T4, Cytochrome P450 2C8; assay: Drug metabolism in supersomes expressing human recombinant CYP2C8 assessed as enzyme-mediated clozapine-N-oxide metabolite formation at 10 uM after 30 mins measured per nmol of P450 by HPLC analysis

T1 sequence (P33261 whole entry): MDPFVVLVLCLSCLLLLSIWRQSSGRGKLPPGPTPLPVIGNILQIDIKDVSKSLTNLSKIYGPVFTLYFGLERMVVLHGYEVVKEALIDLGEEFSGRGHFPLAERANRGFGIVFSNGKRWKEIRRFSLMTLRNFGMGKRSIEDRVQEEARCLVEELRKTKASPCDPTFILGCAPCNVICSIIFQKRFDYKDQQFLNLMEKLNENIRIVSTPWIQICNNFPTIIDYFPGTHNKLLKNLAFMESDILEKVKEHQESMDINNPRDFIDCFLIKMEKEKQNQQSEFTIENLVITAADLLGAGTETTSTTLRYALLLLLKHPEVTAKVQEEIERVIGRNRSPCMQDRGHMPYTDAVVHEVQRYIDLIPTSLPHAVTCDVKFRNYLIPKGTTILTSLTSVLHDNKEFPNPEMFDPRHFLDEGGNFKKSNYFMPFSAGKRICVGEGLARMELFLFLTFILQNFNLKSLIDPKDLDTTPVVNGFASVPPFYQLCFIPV

## CN1CCN(C2=Nc3cc(Cl)ccc3Nc3ccccc32)CC1 [CLOZAPINE]
[1]
  Drug metabolism: 0.58 nmol/min/nmol P450
[2]
  Drug metabolism: 0.32 nmol/min
[3]
  Drug metabolism: 0.3 nmol/min
[4]
  Drug metabolism: 5.11 nmol/min
[5]
  Drug metabolism: 0.64 nmol/min/nmol P450
[6]
  Drug metabolism: 0.075 nmol/min/nmol P450
[7]
  Drug metabolism: 0.057 nmol/min
[8]
  Drug metabolism: 0.065 nmol/min
[9]
  Drug metabolism: 0.64 nmol/min
[10]
  Drug metabolism: 0.24 nmol/min
[11]
  Drug metabolism: 0.2 nmol/min
[12]
  Drug metabolism: 0.51 nmol/min
[13]
  Drug metabolism: 0.1 nmol/min
